Each compound was assayed against ATR kinase (full-length ATR) (Homo sapiens (Human), UniProt Q13535) (assay: ATR inhibition assay (radioactive-phosphate incorporation)). Conditions: not given.
Type: biochemical
Method in brief: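 Radiometric 33P incorporation by 5 nM full-length ATR into 800 μM target peptide with 10 μM [γ-33P]ATP, in 50 mM Tris/HCl pH 7.5, 10 mM MgCl2, 1 mM DTT, 7% DMSO, 25° C. Compound pre-incubated 10 minutes; reaction stopped after 24 hours, captured on phosphocellulose. Ki(app) from non-linear regression of initial rates.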

Sequence of ATR kinase (full-length ATR) (Q13535 whole entry): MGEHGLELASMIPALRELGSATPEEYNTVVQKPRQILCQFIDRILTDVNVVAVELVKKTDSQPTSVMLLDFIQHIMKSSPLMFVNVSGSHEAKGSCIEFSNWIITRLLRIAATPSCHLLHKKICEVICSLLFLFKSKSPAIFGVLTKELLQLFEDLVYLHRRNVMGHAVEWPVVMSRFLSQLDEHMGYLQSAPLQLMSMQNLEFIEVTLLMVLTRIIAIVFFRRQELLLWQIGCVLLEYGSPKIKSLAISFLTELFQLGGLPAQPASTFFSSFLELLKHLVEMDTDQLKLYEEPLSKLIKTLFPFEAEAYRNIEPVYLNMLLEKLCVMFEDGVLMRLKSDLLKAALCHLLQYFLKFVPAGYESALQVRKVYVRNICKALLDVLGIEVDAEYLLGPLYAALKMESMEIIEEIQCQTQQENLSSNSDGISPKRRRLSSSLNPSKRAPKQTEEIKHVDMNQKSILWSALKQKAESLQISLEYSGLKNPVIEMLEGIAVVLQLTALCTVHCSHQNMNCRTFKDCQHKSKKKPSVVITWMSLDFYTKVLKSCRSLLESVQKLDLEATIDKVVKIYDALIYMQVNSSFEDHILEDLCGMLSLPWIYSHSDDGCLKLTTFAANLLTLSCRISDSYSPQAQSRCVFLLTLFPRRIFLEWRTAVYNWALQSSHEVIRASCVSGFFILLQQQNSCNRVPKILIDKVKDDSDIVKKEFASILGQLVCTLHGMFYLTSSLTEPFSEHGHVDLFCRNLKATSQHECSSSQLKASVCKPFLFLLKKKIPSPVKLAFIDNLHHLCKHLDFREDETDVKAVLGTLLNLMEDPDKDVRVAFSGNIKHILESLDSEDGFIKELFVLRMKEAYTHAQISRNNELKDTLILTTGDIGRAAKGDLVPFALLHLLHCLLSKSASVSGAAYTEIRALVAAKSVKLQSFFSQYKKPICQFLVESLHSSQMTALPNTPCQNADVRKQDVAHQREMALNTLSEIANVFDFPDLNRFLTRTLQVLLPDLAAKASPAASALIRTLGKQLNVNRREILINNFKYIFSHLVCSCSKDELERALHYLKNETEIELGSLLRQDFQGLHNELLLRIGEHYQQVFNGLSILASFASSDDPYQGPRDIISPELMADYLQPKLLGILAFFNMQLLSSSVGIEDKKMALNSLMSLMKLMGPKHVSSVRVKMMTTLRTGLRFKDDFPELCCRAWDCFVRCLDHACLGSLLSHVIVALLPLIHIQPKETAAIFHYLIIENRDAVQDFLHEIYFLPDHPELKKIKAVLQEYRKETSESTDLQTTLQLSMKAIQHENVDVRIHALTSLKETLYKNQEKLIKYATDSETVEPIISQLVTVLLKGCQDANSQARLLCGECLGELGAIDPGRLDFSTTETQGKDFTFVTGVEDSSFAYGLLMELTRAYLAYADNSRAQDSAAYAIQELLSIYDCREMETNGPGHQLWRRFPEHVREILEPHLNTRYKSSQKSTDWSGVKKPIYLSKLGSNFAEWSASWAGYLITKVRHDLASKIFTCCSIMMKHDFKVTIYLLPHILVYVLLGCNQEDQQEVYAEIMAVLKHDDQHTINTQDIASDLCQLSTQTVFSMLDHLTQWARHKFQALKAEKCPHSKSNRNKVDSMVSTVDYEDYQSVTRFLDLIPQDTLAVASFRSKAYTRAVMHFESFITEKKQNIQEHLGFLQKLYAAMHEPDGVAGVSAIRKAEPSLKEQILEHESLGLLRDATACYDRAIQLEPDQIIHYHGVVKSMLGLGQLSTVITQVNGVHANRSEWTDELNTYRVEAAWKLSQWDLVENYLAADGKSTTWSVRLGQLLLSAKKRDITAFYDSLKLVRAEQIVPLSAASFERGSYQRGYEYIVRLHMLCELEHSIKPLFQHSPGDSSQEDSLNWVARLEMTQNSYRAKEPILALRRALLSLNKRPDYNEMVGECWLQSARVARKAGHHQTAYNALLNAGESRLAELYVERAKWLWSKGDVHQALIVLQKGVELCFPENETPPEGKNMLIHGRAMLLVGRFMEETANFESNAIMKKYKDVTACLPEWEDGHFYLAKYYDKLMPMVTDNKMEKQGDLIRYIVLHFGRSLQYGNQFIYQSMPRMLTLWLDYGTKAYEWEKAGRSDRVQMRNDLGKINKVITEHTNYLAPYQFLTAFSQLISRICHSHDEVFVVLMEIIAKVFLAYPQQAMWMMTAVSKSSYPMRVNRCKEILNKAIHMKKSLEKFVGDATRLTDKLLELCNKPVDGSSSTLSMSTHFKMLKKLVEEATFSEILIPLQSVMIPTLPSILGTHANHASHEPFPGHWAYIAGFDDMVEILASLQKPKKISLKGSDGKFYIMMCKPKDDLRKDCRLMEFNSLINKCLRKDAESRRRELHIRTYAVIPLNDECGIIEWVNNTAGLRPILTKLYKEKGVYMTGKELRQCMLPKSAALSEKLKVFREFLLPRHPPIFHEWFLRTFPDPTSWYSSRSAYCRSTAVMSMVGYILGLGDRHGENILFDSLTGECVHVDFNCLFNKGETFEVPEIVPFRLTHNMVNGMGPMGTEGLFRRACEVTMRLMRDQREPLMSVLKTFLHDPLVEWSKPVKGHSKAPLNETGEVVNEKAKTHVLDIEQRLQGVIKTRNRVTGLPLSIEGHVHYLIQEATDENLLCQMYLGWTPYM

Row | Ki | SMILES
1 | 1000 to 5000 nM | CN1CCN(c2c(NC(=O)c3c(N)nn4cc(F)cnc34)cncc2C(F)F)CC1 [I-N-111, 2-amino-N-(5-(difluoromethyl)-4-(4-methylpiperazin-1-yl)pyridin-3-yl)-6-fluoropyrazolo[1,5-a]pyrimidine-3-carboxamide]
2 | 1000 to 5000 nM | Nc1nn2cc(F)cnc2c1C(=O)Nc1cnccc1N1CCN(C2COC2)C2CC21 (stereo not drawn) [I-N-112, 2-amino-6-fluoro-N-(4-(5-(oxetan-3-yl)-2,5-diazabicyclo[4.1.0]heptan-2-yl)pyridin-3-yl)pyrazolo[1,5-a]pyrimidine-3-carboxamide]
3 | 1000 to 5000 nM | CN1CCN(c2c(C#N)cncc2NC(=O)c2c(N)nn3cc(F)cnc23)CC1 [I-N-113, 2-amino-N-(5-cyano-4-(4-methylpiperazin-1-yl)pyridin-3-yl)-6-fluoropyrazolo[1,5-a]pyrimidine-3-carboxamide]
4 | 10 to 1000 nM | CN1CC[C@@H](OC2CCN(c3ccncc3NC(=O)c3c(N)nn4cc(F)cnc34)CC2)C1 [I-N-131]
5 | 10 to 1000 nM | CN1CC[C@@H](OC2CCN(c3c(F)cncc3NC(=O)c3c(N)nn4cc(F)cnc34)CC2)C1 [I-N-132, (R)-2-amino-6-fluoro-N-(5-fluoro-4-(4-((1-methylpyrrolidin-3-yl)oxy)piperidin-1-yl)pyridin-3-yl)pyrazolo[1,5-a]pyrimidine-3-carboxamide]
6 | 1000 to 5000 nM | CN1CCN(c2c(F)cncc2NC(=O)c2c(N)nn3cc(C(C)(C)C#N)cnc23)CC1 [I-N-138, 2-amino-6-(2-cyanopropan-2-yl)-N-(5-fluoro-4-(4-methylpiperazin-1-yl)pyridin-3-yl)pyrazolo[1,5-a]pyrimidine-3-carboxamide]

Same assay, conditions: Ki(app), 5 nM full-length ATR, 10 μM ATP, 25° C.

Row | Ki | SMILES
7 | 10 to 1000 nM | Nc1nn2cc(Cl)cnc2c1C(=O)Nc1cnccc1N1CCC(N2CCOCC2)CC1 [I-N-104, 2-amino-6-chloro-N-(4-(4-morpholinopiperidin-1-yl)pyridin-3-yl)pyrazolo[1,5-a]pyrimidine-3-carboxamide]
8 | 10 to 1000 nM | Nc1nn2cc(Cl)cnc2c1C(=O)Nc1cnccc1N1CCC(N2CCCC2)CC1 [I-N-105, 2-amino-6-chloro-N-(4-(4-(pyrrolidin-1-yl)piperidin-1-yl)pyridin-3-yl)pyrazolo[1,5-a]pyrimidine-3-carboxamide]
9 | 10 to 1000 nM | CN(C)C1CCN(C2CCN(c3ccncc3NC(=O)c3c(N)nn4cc(Cl)cnc34)CC2)C1 (stereo not drawn) [I-N-106, 2-amino-6-chloro-N-(4-(4-(3-(dimethylamino)pyrrolidin-1-yl)piperidin-1-yl)pyridin-3-yl)pyrazolo[1,5-a]pyrimidine-3-carboxamide]
10 | 10 to 1000 nM | COC1CN(C2CCN(c3ccncc3NC(=O)c3c(N)nn4cc(Cl)cnc34)CC2)C1 [I-N-107, 2-amino-6-chloro-N-(4-(4-(3-methoxyazetidin-1-yl)piperidin-1-yl)pyridin-3-yl)pyrazolo[1,5-a]pyrimidine-3-carboxamide]
11 | 10 to 1000 nM | Nc1nn2cc(Cl)cnc2c1C(=O)Nc1cnccc1N1CCC(N2CC(F)(F)C2)CC1 [I-N-108, 2-amino-6-chloro-N-(4-(4-(3,3-difluoroazetidin-1-yl)piperidin-1-yl)pyridin-3-yl)pyrazolo[1,5-a]pyrimidine-3-carboxamide]
12 | 10 to 1000 nM | Nc1nn2cc(Cl)cnc2c1C(=O)Nc1cnccc1N1CCC(N2CCC23COC3)CC1 [I-N-109, N-(4-(4-(6-oxa-1-azaspiro[3.3]heptan-1-yl)piperidin-1-yl)pyridin-3-yl)-2-amino-6-chloropyrazolo[1,5-a]pyrimidine-3-carboxamide]
13 | 10 to 1000 nM | Nc1nn2cc(F)cnc2c1C(=O)Nc1cnccc1N1CCN2CCOC[C@@H]2C1 [I-N-115, (S)-2-amino-6-fluoro-N-(4-(hexahydropyrazino[2,1-c][1,4]oxazin-8(1H)-yl)pyridin-3-yl)pyrazolo[1,5-a]pyrimidine-3-carboxamide]
14 | 10 to 1000 nM | Nc1nn2cc(F)cnc2c1C(=O)Nc1cnccc1N1CCN2CCOC[C@H]2C1 [I-N-116, (R)-2-amino-6-fluoro-N-(4-(hexahydropyrazino[2,1-c][1,4]oxazin-8(1H)-yl)pyridin-3-yl)pyrazolo[1,5-a]pyrimidine-3-carboxamide]
15 | 10 to 1000 nM | Nc1nn2cc(Cl)cnc2c1C(=O)Nc1cncc(F)c1N1CCN(C2COC2)CC1 [I-N-117, 2-amino-6-chloro-N-(5-fluoro-4-(4-(oxetan-3-yl)piperazin-1-yl)pyridin-3-yl)pyrazolo[1,5-a]pyrimidine-3-carboxamide]
16 | 10 to 1000 nM | Nc1nn2cc(F)cnc2c1C(=O)Nc1cncc(C2CC2)c1N1CCN([C@@H]2CCOC2)CC1 [I-N-119, (R)-2-amino-N-(5-cyclopropyl-4-(4-(tetrahydrofuran-3-yl)piperazin-1-yl)pyridin-3-yl)-6-fluoropyrazolo[1,5-a]pyrimidine-3-carboxamide]
17 | 10 to 1000 nM | Nc1nn2cc(F)cnc2c1C(=O)Nc1cncc(C2CC2)c1N1CCN([C@H]2CCOC2)CC1 [I-N-120, (S)-2-amino-N-(5-cyclopropyl-4-(4-(tetrahydrofuran-3-yl)piperazin-1-yl)pyridin-3-yl)-6-fluoropyrazolo[1,5-a]pyrimidine-3-carboxamide]
18 | 10 to 1000 nM | Nc1nn2cc(F)cnc2c1C(=O)Nc1cncc(F)c1N1CCN(C2CCOCC2)CC1 [I-N-121, 2-amino-6-fluoro-N-(5-fluoro-4-(4-(tetrahydro-2H-pyran-4-yl)piperazin-1-yl)pyridin-3-yl)pyrazolo[1,5-a]pyrimidine-3-carboxamide]
19 | 10 to 1000 nM | Nc1nn2cc(F)cnc2c1C(=O)Nc1cncc(F)c1N1CCN(C2CCOC2)CC1 (stereo not drawn) [I-N-122, 2-amino-6-fluoro-N-(5-fluoro-4-(4-(tetrahydrofuran-3-yl)piperazin-1-yl)pyridin-3-yl)pyrazolo[1,5-a]pyrimidine-3-carboxamide]
20 | 10 to 1000 nM | Nc1nn2cc(F)cnc2c1C(=O)Nc1cncc(Cl)c1N1CCN(C2CCOC2)CC1 (stereo not drawn) [I-N-124, 2-amino-N-(5-chloro-4-(4-(tetrahydrofuran-3-yl)piperazin-1-yl)pyridin-3-yl)-6-fluoropyrazolo[1,5-a]pyrimidine-3-carboxamide]
21 | 10 to 1000 nM | Nc1nn2cc(F)cnc2c1C(=O)Nc1cncc(F)c1N1CCN([C@H]2CCOC2)CC1 [I-N-125, (S)-2-amino-6-fluoro-N-(5-fluoro-4-(4-(tetrahydrofuran-3-yl)piperazin-1-yl)pyridin-3-yl)pyrazolo[1,5-a]pyrimidine-3-carboxamide]
22 | 10 to 1000 nM | Nc1nn2cc(F)cnc2c1C(=O)Nc1cncc(Cl)c1N1CCNCC1 [I-N-126, 2-amino-N-(5-chloro-4-(piperazin-1-yl)pyridin-3-yl)-6-fluoropyrazolo[1,5-a]pyrimidine-3-carboxamide]
23 | 10 to 1000 nM | COCCN1CCN(c2c(F)cncc2NC(=O)c2c(N)nn3cc(F)cnc23)CC1 [I-N-127, 2-amino-6-fluoro-N-(5-fluoro-4-(4-(2-methoxyethyl)piperazin-1-yl)pyridin-3-yl)pyrazolo[1,5-a]pyrimidine-3-carboxamide]
24 | 10 to 1000 nM | CN1CCC(C(=O)N2CCN(c3c(F)cncc3NC(=O)c3c(N)nn4cc(F)cnc34)CC2)CC1 [I-N-128, 2-amino-6-fluoro-N-(5-fluoro-4-(4-(1-methylpiperidine-4-carbonyl)piperazin-1-yl)pyridin-3-yl)pyrazolo[1,5-a]pyrimidine-3-carboxamide]
25 | 10 to 1000 nM | CNc1cc(N2CCN(C)CC2)c(NC(=O)c2c(N)nn3cc(F)cnc23)cn1 [I-N-129, 2-amino-6-fluoro-N-(6-(methylamino)-4-(4-methylpiperazin-1-yl)pyridin-3-yl)pyrazolo[1,5-a]pyrimidine-3-carboxamide]
26 | 10 to 1000 nM | CN1CCN(c2ccncc2NC(=O)c2c(N)nn3cc(F)cnc23)CC12CCOCC2 [I-N-133, 2-amino-6-fluoro-N-(4-(1-methyl-9-oxa-1,4-diazaspiro[5.5]undecan-4-yl)pyridin-3-yl)pyrazolo[1,5-a]pyrimidine-3-carboxamide]
27 | 10 to 1000 nM | Nc1nn2cc(F)cnc2c1C(=O)Nc1cncc(F)c1N1CCN2CCOC[C@H]2C1 [I-N-135, (R)-2-amino-6-fluoro-N-(5-fluoro-4-(hexahydropyrazino[2,1-c][1,4]oxazin-8(1H)-yl)pyridin-3-yl)pyrazolo[1,5-a]pyrimidine-3-carboxamide]
28 | 10 to 1000 nM | Nc1nn2cc(F)cnc2c1C(=O)Nc1cnccc1N1CCN2C(=O)COCC2C1 (stereo not drawn) [I-N-136, 2-amino-6-fluoro-N-(4-(4-oxohexahydropyrazino[2,1-c][1,4]oxazin-8(1H)-yl)pyridin-3-yl)pyrazolo[1,5-a]pyrimidine-3-carboxamide]
29 | 10 to 1000 nM | Nc1nn2cc(F)cnc2c1C(=O)Nc1cncc(F)c1N1CCN2CCOC[C@@H]2C1 [I-N-137, (S)-2-amino-6-fluoro-N-(5-fluoro-4-(hexahydropyrazino[2,1-c][1,4]oxazin-8(1H)-yl)pyridin-3-yl)pyrazolo[1,5-a]pyrimidine-3-carboxamide]
30 | 10 to 1000 nM | CC(C)(O)CN1CCN(c2c(F)cncc2NC(=O)c2c(N)nn3cc(F)cnc23)CC1 [I-N-139, 2-amino-6-fluoro-N-(5-fluoro-4-(4-(2-hydroxy-2-methylpropyl)piperazin-1-yl)pyridin-3-yl)pyrazolo[1,5-a]pyrimidine-3-carboxamide]

Row | SMILES | Ki
31 | Cc1cncc(NC(=O)c2c(N)nn3cc(F)cnc23)c1N1CCN(C2CCOCC2)CC1 [I-N-123, 2-amino-6-fluoro-N-(5-methyl-4-(4-(tetrahydro-2H-pyran-4-yl)piperazin-1-yl)pyridin-3-yl)pyrazolo[1,5-a]pyrimidine-3-carboxamide] | 10 to 1000 nM
32 | Nc1nn2cc(F)cnc2c1C(=O)Nc1cncc(F)c1N1CCN(C(=O)C2CN3CCC2CC3)CC1 (stereo not drawn) [I-N-130, 2-amino-6-fluoro-N-(5-fluoro-4-(4-(quinuclidine-3-carbonyl)piperazin-1-yl)pyridin-3-yl)pyrazolo[1,5-a]pyrimidine-3-carboxamide] | 10 to 1000 nM
33 | Nc1nn2cc(F)cnc2c1C(=O)Nc1cncc(F)c1N1CCN(C(=O)C23CCN(CC2)CC3)CC1 [I-N-134, 2-amino-6-fluoro-N-(5-fluoro-4-(4-(quinuclidine-4-carbonyl)piperazin-1-yl)pyridin-3-yl)pyrazolo[1,5-a]pyrimidine-3-carboxamide] | 10 to 1000 nM
